Experimental findings from US8624040B2, “Substituted hydroxamic acids and uses thereof” (Millennium Pharmaceuticals, Inc., priority 2009, dated 2014) are described below.

For orientation: IC50 means the point on the concentration scale where inhibition reaches its midpoint. A low value points to greater potency in that assay.

In this assay the target is T1, purified human HDAC6 (Homo sapiens, UniProt Q9UBN7).
T1 construct: purchased BPS Bioscience 5006
T1 sequence (Q9UBN7 1-1215): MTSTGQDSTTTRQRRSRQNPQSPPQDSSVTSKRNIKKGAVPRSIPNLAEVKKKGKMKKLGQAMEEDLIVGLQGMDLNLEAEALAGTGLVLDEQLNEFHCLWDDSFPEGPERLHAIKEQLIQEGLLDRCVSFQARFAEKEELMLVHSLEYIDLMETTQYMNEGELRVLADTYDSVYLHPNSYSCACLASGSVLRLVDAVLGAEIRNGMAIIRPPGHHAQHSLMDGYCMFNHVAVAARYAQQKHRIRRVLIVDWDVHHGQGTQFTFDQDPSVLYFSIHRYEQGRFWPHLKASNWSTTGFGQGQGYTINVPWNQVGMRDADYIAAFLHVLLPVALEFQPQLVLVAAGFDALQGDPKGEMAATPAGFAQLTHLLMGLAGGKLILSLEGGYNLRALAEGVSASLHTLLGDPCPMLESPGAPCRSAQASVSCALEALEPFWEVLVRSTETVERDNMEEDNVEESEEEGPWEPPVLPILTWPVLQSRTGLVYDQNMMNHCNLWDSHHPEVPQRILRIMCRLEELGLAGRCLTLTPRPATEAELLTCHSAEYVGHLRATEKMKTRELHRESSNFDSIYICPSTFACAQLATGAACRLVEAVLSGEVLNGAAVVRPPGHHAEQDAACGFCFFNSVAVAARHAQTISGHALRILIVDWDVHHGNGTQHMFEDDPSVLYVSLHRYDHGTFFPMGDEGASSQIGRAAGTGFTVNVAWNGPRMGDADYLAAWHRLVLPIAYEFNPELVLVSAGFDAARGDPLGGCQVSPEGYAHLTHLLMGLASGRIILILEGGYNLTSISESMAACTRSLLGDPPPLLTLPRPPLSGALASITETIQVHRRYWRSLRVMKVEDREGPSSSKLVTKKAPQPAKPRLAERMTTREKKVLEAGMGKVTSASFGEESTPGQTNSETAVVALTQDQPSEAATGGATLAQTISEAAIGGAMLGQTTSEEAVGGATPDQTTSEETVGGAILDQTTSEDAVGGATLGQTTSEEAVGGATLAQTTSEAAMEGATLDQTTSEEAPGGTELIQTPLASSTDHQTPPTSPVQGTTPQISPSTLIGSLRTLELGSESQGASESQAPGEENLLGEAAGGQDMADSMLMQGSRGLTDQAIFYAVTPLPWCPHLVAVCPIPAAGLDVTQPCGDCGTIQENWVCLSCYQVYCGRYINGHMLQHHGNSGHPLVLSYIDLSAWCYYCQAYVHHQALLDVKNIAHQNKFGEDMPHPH
In words: HDAC6 Enzyme Assay. It counts as biochemical. The note with it: enzyme inhibition, substrate Ac-Arg-Gly-Lys(Ac)-AMC, 1 hour at 30° C. The procedure:
To measure the inhibition of HDAC6 activity, purified human HDAC6 (BPS Bioscience; Cat. No. 5006) is incubated with substrate Ac-Arg-Gly-Lys(Ac)-AMC peptide (Bachem Biosciences; Cat. No. I-1925) for 1 hour at 30° C. in the presence of test compounds or vehicle DMSO control. The reaction is stopped with the HDAC inhibitor trichostatin A (Sigma; Cat. No. T8552) and the amount of Arg-Gly-Lys-AMC generated is quantitated by digestion with trypsin (Sigma; Cat. No. T1426) and subsequent measurement of the amount of AMC released using a fluorescent plate reader (Pherastar; BMG Technologies) set at Ex 340 nm and Em 460 nm. Concentration response curves are generated by calculating the fluorescence increase in test compound-treated samples relative to DMSO-treated controls, and enzyme inhibition (IC50) values are determined from those curves.
As for `CC(C)(C)c1ccc(C(=O)N2CCc3cc(C(=O)NO)sc3C2)cc1` [Compound 64, 6-(4-tert-butylbenzoyl)-N-hydroxy-4,5,6,7-tetrahydrothieno[2,3-c]pyridine-2-carboxamide], the IC50 was < 50 nM.

As for `Cc1oc(-c2ccccc2)nc1CC(=O)N1CCc2cc(C(=O)NO)sc2C1` [Compound 65, N-hydroxy-6-[(5-methyl-2-phenyl-1,3-oxazol-4-yl)acetyl]-4,5,6,7-tetrahydrothieno[2,3-c]pyridine-2-carboxamide], the half-inhibitory concentration (IC50) was < 50 nM. The figure for `Cc1oc(C(C)(C)C)cc1C(=O)N1CCc2cc(C(=O)NO)sc2C1` [Compound 67, 6-(5-tert-butyl-2-methyl-3-furoyl)-N-hydroxy-4,5,6,7-tetrahydrothieno[2,3-c]pyridine-2-carboxamide] is < 50 nM; for `Cc1nc(CC(=O)N2CCc3cc(C(=O)NO)sc3C2)cs1` [Compound 75, N-hydroxy-6-(2-(2-methylthiazol-4-yl)acetyl)-4,5,6,7-tetrahydrothieno[2,3-c]pyridine-2-carboxamide] it is 50 to 100 nM; for `O=C(NO)c1cc2c(s1)CN(C(=O)NC1CCCCC1)CC2` [Compound 76, N^6-cyclohexyl-N^2-hydroxy-4,7-dihydrothieno[2,3-c]pyridine-2,6(5H)-dicarboxamide] it is < 50 nM. As to `Cc1cccc(NC(=O)N2CCc3cc(C(=O)NO)sc3C2)c1` [Compound 80, N^2-hydroxy-N^6-(3-methylphenyl)-4,7-dihydrothieno[2,3-c]pyridine-2,6(5H)-dicarboxamide], the IC50 was < 50 nM.

For `O=C(NO)c1cc2c(s1)CN(C(=O)c1cccc(O)n1)CC2` [Compound 81, N-hydroxy-6-[(6-hydroxypyridin-2-yl)carbonyl]-4,5,6,7-tetrahydrothieno[2,3-c]pyridine-2-carboxamide], the IC50 was in the range of 50 to 100 nM.

`Cn1nc(C(C)(C)C)cc1C(=O)N1CCc2cc(C(=O)NO)sc2C1` [Compound 88, 6-[(3-tert-butyl-1-methyl-1H-pyrazol-5-yl)carbonyl]-N-hydroxy-4,5,6,7-tetrahydrothieno[2,3-c]pyridine-2-carboxamide]: the 50% inhibitory concentration (IC50) is < 50 nM. With `O=C(NO)c1cc2c(s1)CN(C(=O)CSc1cccc(C(F)(F)F)c1)CC2` [Compound 89, N-hydroxy-6-({[3-(trifluoromethyl)phenyl]sulfanyl}acetyl)-4,5,6,7-tetrahydrothieno[2,3-c]pyridine-2-carboxamide] the figure was < 50 nM; with `Cc1ccoc1C(=O)N1CCc2cc(C(=O)NO)sc2C1` [Compound 94, N-hydroxy-6-(3-methyl-2-furoyl)-4,5,6,7-tetrahydrothieno[2,3-c]pyridine-2-carboxamide], < 50 nM. The figure for `O=C(NO)c1cc2c(s1)CN(C(=O)c1ccc3ncccc3c1)CC2` [Compound 95, N-hydroxy-6-(quinoline-6-carbonyl)-4,5,6,7-tetrahydrothieno[2,3-c]pyridine-2-carboxamide] is < 50 nM; for `Cc1ncsc1C(=O)N1CCc2cc(C(=O)NO)sc2C1` [Compound 98, N-hydroxy-6-[(4-methyl-1,3-thiazol-5-yl)carbonyl]-4,5,6,7-tetrahydrothieno[2,3-c]pyridine-2-carboxamide] it is < 50 nM; for `O=C(NO)c1cc2c(s1)CN(C(=O)c1cccc3cccnc13)CC2` [Compound 99, N-hydroxy-6-(quinoline-8-carbonyl)-4,5,6,7-tetrahydrothieno[2,3-c]pyridine-2-carboxamide] it is < 50 nM. With `COc1cc(OC)nc(C(=O)N2CCc3cc(C(=O)NO)sc3C2)n1` [Compound 100, 6-[(4,6-dimethoxypyrimidin-2-yl)carbonyl]-N-hydroxy-4,5,6,7-tetrahydrothieno[2,3-c]pyridine-2-carboxamide], the IC50 lay in the range of 50 to 100 nM. The figure for `Cc1ccc(CNC(=O)N2CCc3cc(C(=O)NO)sc3C2)cc1` [Compound 103, N2-hydroxy-N-6-(4-methylbenzyl)-4,5-dihydrothieno[2,3-c]pyridine-2,6(5H)-dicarboxamide] is < 50 nM.
